Measured values published in US9090600B2, “Fungicidal 4-substituted-3-{phenyl[(heterocyclylmethoxy)imino]methyl}-1,2,4-oxadizol-5(4H)-one derivatives” (BAYER INTELLECTUAL PROPERTY GMBH, priority 2011, dated 2015).
Read-outs that look alike come from different tables or passages of the source. Marks after values point to notes of the source that are not given here.

Assays:
[1] = tested on: Pythium aphanidermatum; assay: Pythium test (cucumber)/seed treatment; type: in vivo; details: 10 g/dt seed of active ingredient, emerged seedlings after 7 days
Description: (§1) The test is performed under greenhouse conditions.
Cucumber seeds, treated with the active compound or compound combinations, solved in N-methyl-2-pyrrolidon and diluted with water to the desired dosages, were sown in 6*6 cm pots containing 4 cm of a 1:1 mix of steamed field soil and sand.
Perlite was incubated with mycelium fragments of Pythium aphanidermatum. 5 ml of infected perlite was scattered between the treated […] seeds. Seeds were then covered by the 1:1 mix of steamed field soil and sand. Pots were incubated in the greenhouse 7 days at 24° C. and 80% relative humidity. Assessment consisted of counting of emerged seedlings. 0% means an efficacy which corresponds to that of the control, while an efficacy of 100% means that all seedlings have emerged.

[2] = tested on: Plasmopara viticola; assay: Plasmopara test (grapevines)/preventive; type: in vivo; details: preventive spray, 10 ppm of active ingredient, evaluated 6 days after inoculation
Procedure, shortened: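 Young grapevines sprayed preventively with compound formulated in acetone/dimethylacetamide with emulsifier, diluted in water, then inoculated with P. viticola spores after drying. Held 1 day at ~20 °C/100% RH, 4 days in greenhouse at ~21 °C/~90% RH, then misted for 1 day. Efficacy scored 6 days post-inoculation (0% = untreated control, 100% = no disease).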

[3] = tested on: Pythium ultimum; assay: Pythium test (cotton)/seed treatment; type: in vivo; details: 10 g/dt seed of active ingredient, emerged seedlings after 7 days
Description: as §1
Cotton seeds, treated with the active compound or compound combinations, solved in N-methyl-2-pyrrolidon and diluted with water to the desired dosages, were sown in 6*6 cm pots containing 4 cm of a 1:1 mix of steamed field soil and sand.
Perlite was incubated with mycelium fragments of Pythium ultimum. 1 ml of infected perlite was scattered between the treated cotton seeds. Seeds were then covered by light expanded clay aggregate. Pots were incubated in the greenhouse 7 days at 20° C. and 80% relative humidity.
(§2) Assessment consisted of counting of emerged seedlings. 0% means an efficacy which corresponds to that of the control, while an efficacy of 100% means that all seedlings have emerged.

[4] = tested on: Phytophthora infestans; type: in vivo; details: tomato plants, spray, 500 ppm, grading 5 days after contamination
[5] = tested on: Phytophthora infestans; type: in vivo; details: tomato, preventive spray, 100 ppm of active ingredient, evaluated 7 days after inoculation
[6] = tested on: Pythium irregulare; assay: Pythium test (corn)/seed treatment; type: in vivo; details: 10 g/dt seed of active ingredient, emerged seedlings after 7 days at 10° C. then 14 days at 20° C.
Description: as §1
Corn seeds, treated with the active compound or compound combinations, solved in N-methyl-2-pyrrolidon and diluted with water to the desired dosages, were sown in 6*6 cm pots containing 4 cm of a 1:1 mix of steamed field soil and sand.
Perlite was incubated with mycelium fragments of Pythium irregulare. 5 ml of infected perlite was scattered between the treated cotton seeds. Seeds were than covered by the 1:1 mix of steamed field soil and sand. Pots were incubated in the greenhouse 7 days at 10° C. and 80% relative humidity and then 14 days at 20° C. and 80% relative humidity.
as §2

[7] = pH 2.7
[8] = tested on: Puccinia recondita; assay: In vivo test on Puccinia recondita (brown rust); details: wheat plants, spray, 500 ppm, grading 10 days after contamination
Procedure, shortened: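 Wheat (Scipion) at the 1-leaf stage sprayed with compound suspension (acetone/tween/DMSO diluted in water), then inoculated 24 h later with Puccinia recondita spores at 100.000 spores per ml. Plants were held 24 h at 20 °C/100% RH, then 10 days at 20 °C/70% RH; protection graded 10 days post-inoculation versus untreated controls.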

[9] = tested on: Sphaerotheca fuliginea; assay: In vivo test on Sphaerotheca fuliginea (cucurbits powdery mildew); details: gherkin plants, spray, 500 ppm, grading 12 days after contamination
Description: (§3) The active ingredients tested are prepared by homogenization in a mixture of acetone/tween/DMSO, then diluted with water to obtain the desired active material.
Gherkin plants (Vert petit de Paris variety) in starter cups, sown on a 50/50 peat soil-pozzolana substrate and grown at 20° C./23° C., are treated at the cotyledon Z10 stage by spraying with the aqueous suspension described above. Plants, used as controls, are treated with an aqueous solution not containing the active material.
After 24 hours, the plants are contaminated by spraying them with an aqueous suspension of Sphaerotheca fuliginea spores (100.000 spores per ml). The spores are collected from a contaminated plants. The contaminated gherkin plants are incubated at about 20° C./25° C. and at 60/70% relative humidity.
Grading (% of efficacy) is carried out 12 days after the contamination, in comparison with the control plants.
(§4) Under these conditions, good (at least 70%) or total protection is observed at a dose of 500 ppm with the following compounds: […]

[10] = tested on: Alternaria brassicae; assay: In vivo test on Alternaria brassicae (leaf spot of crucifers); details: radish plants, spray, 500 ppm, grading 6 to 7 days after contamination
Description: as §3
Radish plants (Pernot variety), sown on a 50/50 peat soil-pozzolana substrate in starter cups and grown at 18-20° C., are treated at the cotyledon stage by spraying with the active ingredient prepared as described above.
Plants, used as controls, are treated with the mixture of acetone/tween/water not containing the active material.
After 24 hours, the plants are contaminated by spraying them with an aqueous suspension of Alternaria brassicae spores (40,000 spores per cm^3). The spores are collected from a 12 to 13 days-old culture.
The contaminated radish plants are incubated for 6-7 days at about 18° C., under a humid atmosphere.
Grading is carried out 6 to 7 days after the contamination, in comparison with the control plants.
Under these conditions, good protection (at least 70%) is observed at a dose of 500 ppm with the following compounds: […]

[11] = tested on: Uromyces appendiculatus; assay: In vivo test on Uromyces appendiculatus (brown rust of bean); details: Saxa variety plants, spray, 500 ppm, grading 10 days after contamination
[12] = tested on: Mycosphaerella graminicola; assay: In vivo test on Mycosphaerella graminicola (wheat leaf spot); details: wheat plants, spray, 500 ppm, grading 21 to 28 days after contamination
Procedure, shortened: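 Scipion wheat at 1-leaf stage was sprayed with compound suspension (acetone/tween/DMSO diluted in water), then inoculated 24 h later with spores (500.000/ml). Plants were held 72 h at 18° C and 100% RH, then 21 to 28 days at 90% RH. Efficacy was graded as % versus untreated controls.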

[13] = tested on: Pyrenophora teres; assay: In vivo test on Pyrenophora teres (barley net blotch); details: barley plants, spray, 500 ppm, grading 12 days after contamination
Description: The active ingredients tested are prepared by homogenization in a mixture of acetone/Tween/DMSO, then diluted with water to obtain the desired active material concentration.
Barley plants (Plaisant variety), sown on a 50/50 peat soil-pozzolana substrate in starter cups and grown at 22° C. (12 h)/20° C. (12 h), are treated at the 1-leaf stage (10 cm tall) by spraying with the active ingredient prepared as described above.
Plants, used as controls, are treated with an aqueous solution not containing the active material.
After 24 hours, the plants are contaminated by spraying them with an aqueous suspension of Pyrenophora teres spores (12.000 spores per ml). The spores are collected from a 12-day-old culture.
The contaminated barley plants are incubated for 24 hours at about 20° C. and at 100% relative humidity, and then for 12 days at 80% relative humidity.
Grading is carried out 12 days after the contamination, in comparison with the control plants.
Under these conditions, good (at least 70%) is observed at a dose of 500 ppm with the following compounds: […]

[14] = tested on: Botrytis cinerea; assay: In vivo test on Botrytis cinerea (grey mould); details: gherkin plants, spray, 500 ppm, grading 4/5 days after contamination
Description: The active ingredients tested are prepared by homogenization in a mixture of acetone/Tween/DMSO, then diluted with water to obtain the desired active material
Gherkin plants (Vert petit de Paris variety), sown on a 50/50 peat soil-pozzolana substrate in starter cups and grown at 18-20° C., are treated at the cotyledon Z11 stage by spraying with the active ingredient prepared as described above.
Plants, used as controls, are treated with an aqueous solution not containing the active material. After 24 hours, the plants are contaminated by spraying them with an aqueous suspension of cryopreserved Botrytis cinerea spores (50.000 spores per ml) on upper surface of the leaves. The spores are suspended in a nutrient solution composed of: • 10 g/L of PDB; • 50 g/L of D-fructose; • 2 g/L of NH4NO3; • 1 g/L of KH2PO4.
The contaminated cucumber plants are settled for 4/5 days in a climatic room at 17° C. (day/night) and at 80% relative humidity.
Grading is carried out 4/5 days after the contamination, in comparison with the control plants.
as §4

[15] = Measurement of log P values by HPLC on reversed phase columns (EEC directive 79/831 Annex V.A8); details: pH 2.7

SMILES | Eff. % [1] | Eff. % [2] | Eff. % [3] | Eff. % [4] | Eff. % [5] | Eff. % [6] | LogP [7] | Eff. % [8] | Eff. % [9] | Eff. % [10] | Eff. % [11] | Eff. % [12] | Eff. % [13] | Eff. % [14] | chromatographic logP [15]
CCCCC(=O)Nc1cccc(CO/N=C(/c2ccccc2)c2noc(=O)n2C)n1 [Example 15] | 98% | 97% | 96% | 99% | 98% | 100% | 3.51 [a] | – | – | – | – | – | – | – | –
CCn1c(/C(=N\OCc2cccc(N)n2)c2ccccc2)noc1=O [Example 209] | – | – | – | 84% | – | – | 1.42 [a] | 88% | 75% | 70% | – | – | – | – | –
C#CCC(C)OC(=O)Nc1cccc(CO/N=C(/c2ccccc2)c2noc(=O)n2C)n1 (centres unmarked) [Example 226] | 99% | 100% | 93% | 100% | 92% | 90% | 3.57 [a] | – | – | – | – | – | – | – | –
COc1ccc(OC)c(CC(=O)Nc2cccc(CO/N=C(/c3ccccc3)c3noc(=O)n3C)n2)c1 [Example 190] | – | – | – | 100% | – | – | 3.6 [a] | 94% | 98% | – | 83% | 100% | – | – | –
COc1cccc(C(=O)Nc2nc(CO/N=C(/c3ccccc3)c3noc(=O)n3C)cs2)c1 [Example 212] | – | – | – | 73% | – | – | 3.58 [a] | 89% | 100% | 70% | 100% | 100% | 97% | – | –
Cn1c(/C(=N\OCc2cccc(NC(=O)OCc3ccccc3)n2)c2ccccc2)noc1=O [Example 168] | 92% | 100% | 70% | 99% | 92% | 100% | 3.99 [a] | – | – | – | – | – | – | – | –
C#CCOC(=O)Nc1cccc(CO/N=C(/c2ccccc2)c2noc(=O)n2C)n1 [Example 342] | 100% | 100% | 100% | 99% | 92% | 100% | 3.13 [a] | – | – | – | – | – | – | – | –
CCCCCC(=O)Nc1cccc(CO/N=C(/c2cccc(OC)c2)c2noc(=O)n2C)n1 [Example 211] | – | – | – | 91% | – | – | 3.92 [a] | 71% | 72% | – | – | – | – | 84% | –
CCC(CC)C(=O)Nc1cccc(CO/N=C(/c2ccccc2)c2noc(=O)n2C)n1 [Example 124] | – | – | – | 99% | – | – | 3.71 [a] | – | 80% | – | – | – | – | – | –
C#CCCOC(=O)Nc1cccc(CO/N=C(/c2ccccc2)c2noc(=O)n2C)n1 [Example 3] | 95% | 100% | 93% | – | 98% | 100% | 3.27 [a] | – | – | – | – | – | – | – | –
Cn1c(/C(=N\OCc2cccc(N)n2)c2cccc(F)c2)noc1=O [Example 83] | – | – | – | 100% | – | – | 1.34 [a] | 89% | 85% | – | 75% | 93% | – | 73% | –
CCN(CC)c1cccc(CO/N=C(/c2ccccc2)c2noc(=O)n2C)n1 [Example 197, 3-[(Z)-({[6-(diethylamino)pyridin-2-yl]methoxy}imino)(phenyl)methyl]-4-methyl-1,2,4-oxadiazol-5(4H)-one] | – | – | – | 100% | – | – | – | 94% | 80% | – | 89% | 96% | – | – | 2.63
